From the text: Component (c1-1) is preferably in a state that it is soluble in the allergen-removing agent.

solubility in component (a): ≥ 5 g/100 g
solubility in water: ≤ 0.3 g/100 g
Compound: CCCCCCCCCCCCCCCCO [palmityl alcohol]
